Measured values: patent US8993575B2, “[1,3,4] oxadiazole derivative and application thereof” (Huazhong University of Science & Technology, priority 2011, dated 2015)
pIC50: −log10 of the molar value. Like-named read-outs stand apart in the source and are kept apart here.

What was measured:
5HT1A receptor = 5HT1A receptor (Rattus norvegicus (Rat), UniProt P19327); assay: 5HT1A receptor binding assay (3H-8-OH-DPAT, rat brain mantle membrane); settings: for inhibition at 10 µM: test compound final concentration 10^-5 M; for pIC50: values marked a = IC50
5HT1A receptor, sequence (P19327 whole entry): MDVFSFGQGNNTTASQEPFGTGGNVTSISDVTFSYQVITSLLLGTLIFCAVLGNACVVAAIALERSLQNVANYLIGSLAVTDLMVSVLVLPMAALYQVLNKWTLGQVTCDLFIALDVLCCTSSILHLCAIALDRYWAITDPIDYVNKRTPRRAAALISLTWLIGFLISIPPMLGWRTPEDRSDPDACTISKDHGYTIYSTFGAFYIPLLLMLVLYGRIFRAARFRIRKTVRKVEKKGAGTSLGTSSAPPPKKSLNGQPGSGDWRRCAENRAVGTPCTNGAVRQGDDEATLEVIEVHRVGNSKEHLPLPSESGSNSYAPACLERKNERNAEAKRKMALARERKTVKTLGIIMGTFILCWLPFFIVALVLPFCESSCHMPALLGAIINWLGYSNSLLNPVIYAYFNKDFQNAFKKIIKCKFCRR
Procedure: Incubation at 37° C. was conducted for 10 min, the weight of the tubes were adjusted using a balance after incubation. […] Centrifugation was conducted and repeated 3 times.

5HT2A receptor = 5HT2A receptor (Rattus norvegicus (Rat), UniProt P14842); assay: 5HT2A receptor assay ([3H]-Ketanserin, rat brain mantle membrane); assay type: binding; settings: for inhibition at 10 µM: read-out: 5HT2A Inhibition %; for pIC50: values marked a = IC50
5HT2A receptor, sequence (P14842 whole entry): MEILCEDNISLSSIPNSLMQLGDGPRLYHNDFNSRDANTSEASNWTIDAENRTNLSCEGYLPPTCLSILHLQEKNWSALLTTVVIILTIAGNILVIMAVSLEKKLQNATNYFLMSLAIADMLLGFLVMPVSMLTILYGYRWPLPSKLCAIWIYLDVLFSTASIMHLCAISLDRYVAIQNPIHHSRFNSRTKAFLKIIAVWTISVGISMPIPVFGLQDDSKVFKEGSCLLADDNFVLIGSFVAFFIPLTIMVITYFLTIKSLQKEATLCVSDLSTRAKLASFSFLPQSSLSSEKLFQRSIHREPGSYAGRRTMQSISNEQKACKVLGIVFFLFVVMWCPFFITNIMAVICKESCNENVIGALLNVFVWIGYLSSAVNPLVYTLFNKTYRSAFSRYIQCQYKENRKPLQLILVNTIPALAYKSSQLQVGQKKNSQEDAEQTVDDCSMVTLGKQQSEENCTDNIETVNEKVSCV

D2 receptor = D2 receptor (Rattus norvegicus (Rat), UniProt P61169); assay: D2 receptor binding assay (3H-Spiperone, rat brain striatum membrane); settings: read-out: D2 Inhibition %
D2 receptor, sequence (P61169 whole entry): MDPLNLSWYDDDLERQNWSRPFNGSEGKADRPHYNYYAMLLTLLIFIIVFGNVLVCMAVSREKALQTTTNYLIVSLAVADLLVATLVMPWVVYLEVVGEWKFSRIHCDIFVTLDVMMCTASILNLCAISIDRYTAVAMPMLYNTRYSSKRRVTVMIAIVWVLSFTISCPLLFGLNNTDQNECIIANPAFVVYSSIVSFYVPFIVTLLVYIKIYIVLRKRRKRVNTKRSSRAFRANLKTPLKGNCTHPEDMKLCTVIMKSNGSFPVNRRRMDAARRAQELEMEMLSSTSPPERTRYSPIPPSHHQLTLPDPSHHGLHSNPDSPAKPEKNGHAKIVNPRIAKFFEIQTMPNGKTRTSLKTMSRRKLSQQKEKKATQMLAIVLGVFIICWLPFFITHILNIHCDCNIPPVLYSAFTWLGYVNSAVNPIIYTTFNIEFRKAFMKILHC
Procedure: Brain striatum was rapidly taken, and 2 brain striatums were combined into a centrifuge tube, to which 3 ml of buffer (0.05 M Tris-HCl buffer, containing NaCl 120 mM, KCl 5 mM, MgCl2 1 mM, CaCl2 1 mM) was added, homogenization was conducted for 3-4 s at level 4 for four times, and then 5 ml of buffer was then added. The weight of the homogenized tubes were adjusted using a balance, and centrifugation was conducted at 12000 r, 4° C. for 20 min. The supernatant was discarded, and 3 ml of buffer was added (0.05 M Tris-HCl buffer, containing NaCl 120 mM, KCl 5 mM, MgCl2 1 mM, CaCl2 1 mM). Vortex mixer was used for blending, and then 5 ml of buffer was added (0.05 M Tris-HCl buffer, containing NaCl 120 mM, KCl 5 mM, MgCl2 1 mM, CaCl2 1 mM). Centrifugation was conducted and repeated 3 times. After the centrifugations, the supernatant was discarded, and the pellets were stored at −80° C. for future use.
Beckman LS-6500 Multi-function Liquid Scintillation Counter was used.
(1) The prepared membrane was first applied with appropriate amount of buffer (0.05 M Tris-HCl buffer, containing NaCl 120 mM, KCl 5 mM, MgCl2 1 mM, CaCl2 1 mM), and homogenizer was used for evenly dispersing. 15 tubes were mixed into a 100 ml container, and appropriate amount of homogenized liquid was added to give 50 ml of membrane suspension, which was reserved for future use.
(2) 100 μL of membrane preparation and 100 μL of buffer (0.05 M Tris-HCl buffer, containing NaCl 120 mM, KCl 5 mM, MgCl2 1 mM, CaCl2 1 mM) were added into each reaction tube.
(3) 100 μL of homogenized liquid was added into the total binding tube (TB), 100 μL of Butaclamol (final concentration 10^−5 M) was added into the non-specific binding tube (NB), and 100 μL of the test compound (final concentration 10^−5 M) was added into the specific binding tube (SB) for each compound.
(5) Each of the reaction tubes was incubated at 37° C. for 20 min. After the reaction was completed, the bound ligands were rapidly filtered under reduced pressure, and the ice-chilled assay buffer was used for adequate washing. The filter was taken out and put into a 3 ml scintillation vial, and 2 ml of toluene scintillation solution was added and blended.
(6) The scintillation vials were put into Liquid Scintillation Counter for counting. Inhibitory rate(1%)=[(Total binding tube cpm−compound cpm)/(Total binding tube cpm−non-specific binding tube cpm)]×100%
Each assay for the compounds was conducted in duplicate.

D3 receptor = D3 receptor (Homo sapiens (Human), UniProt P35462); assay: D3 receptor binding assay ([3H]-Spiperone, HEK-293 cells); settings: test compound final concentration 10 μmol/L
D3 receptor, sequence (P35462 whole entry): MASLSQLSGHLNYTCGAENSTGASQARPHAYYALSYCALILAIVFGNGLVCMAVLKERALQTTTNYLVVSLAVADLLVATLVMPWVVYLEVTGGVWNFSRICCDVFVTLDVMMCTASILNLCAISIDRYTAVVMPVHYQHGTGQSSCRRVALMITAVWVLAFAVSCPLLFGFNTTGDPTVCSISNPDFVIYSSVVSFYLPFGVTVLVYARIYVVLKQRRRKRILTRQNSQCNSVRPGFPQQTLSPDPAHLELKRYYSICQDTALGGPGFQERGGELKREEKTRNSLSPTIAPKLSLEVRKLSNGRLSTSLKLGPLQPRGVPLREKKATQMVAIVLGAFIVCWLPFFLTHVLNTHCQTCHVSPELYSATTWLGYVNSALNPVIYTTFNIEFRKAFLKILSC
Procedure: After the cells were centrifuged at 1000 rpm for 5 min, the supernatant was discarded, and the cell pellet was collected and stored in a −20° C. fridge for reservation. It was re-suspended with Tris-Cl (pH 7.4) in the assay.
Tris was divided into aliquots by Genetimes Technology Inc.
Competitive binding test for receptors: 20 μl of each of the test compounds and 20 μl of the radioactive ligand together with 160 μl of the receptor proteins were added into the reaction tubes, and the final concentrations of the test compound and the positive drug were all 10 μmol/L. After 50 min of incubation in 30° C. water bath, the tubes were immediately moved to ice bath to terminate the reactions. GF/C glass fiber filter papers were used for rapid sucking filtration on a Millipore cell sample collector, elution buffer (50 mM Tris-HCl, PH 7.4) was applied for 3 ml×3 times, and microwave was applied for 4-5 min for drying. The filter papers were moved into 0.5 ml centrifuge tubes, and 500 μl of lipid-soluble scintillation solution was added. The tubes were allowed to stand still for over 30 min in dark, and the intensities of radioactivity were measured by a counter.

5HT2C = 5HT2C (Rattus norvegicus (Rat), UniProt P08909); assay: 5HT2C receptor binding assay ([3H]-mesulergine, rat brain mantle membrane); settings: test compound final concentration 10^-5 M
5HT2C, sequence (P08909 33-460 limits assumed): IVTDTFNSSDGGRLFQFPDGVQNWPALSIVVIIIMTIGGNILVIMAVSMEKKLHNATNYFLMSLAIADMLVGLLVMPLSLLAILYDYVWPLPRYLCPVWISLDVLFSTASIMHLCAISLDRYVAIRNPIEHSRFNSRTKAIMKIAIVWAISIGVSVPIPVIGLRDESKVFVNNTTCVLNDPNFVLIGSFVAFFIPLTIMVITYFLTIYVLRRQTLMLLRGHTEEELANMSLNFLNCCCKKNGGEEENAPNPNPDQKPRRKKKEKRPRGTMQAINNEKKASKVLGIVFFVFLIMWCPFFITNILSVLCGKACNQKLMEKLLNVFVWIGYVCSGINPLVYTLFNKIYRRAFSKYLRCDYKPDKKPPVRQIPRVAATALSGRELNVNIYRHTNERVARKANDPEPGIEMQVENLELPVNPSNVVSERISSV
Procedure: Incubation at 37° C. was conducted for 10 min, the weight of the tubes were adjusted using a balance after the incubation. […] Centrifugation was conducted (repeated 3 times).

[1] = tested on: four receptors (D2, D3, 5-HT1A and 5-HT2A); assay: In vitro receptor binding assays, summary over four receptors; settings: in vitro assay
in vivo = settings: both sexes, mouse, in vivo, po
Procedure: (§1) KM mice (half male and half female) were randomly divided into several groups (with 2-5 mice in each group), which were respectively the 2000 mg/kg groups for each compound, and the solvent group. 0.2 ml/10 g were administered intragastrically. The death of the animals in 3 days were observed. (In the case 3 or more animals survived in 3 days without notable abnormity in their life states, the observation was continued until the assay was completed in 7 days. In the case 3 or more animals died in 3 days, the median lethal dose method was used to determine the LD50).
(§2) KM mice (half male and half female) were randomly divided into several groups (with 4 mice in each group), which were respectively the 1500 mg/kg, 1000 mg/kg, 500 mg/kg groups for each compound, and the solvent group. 0.2 ml/10 g were administered intragastrically, and the death of the animals in 1-3 days were observed.

KM mice (catalepsy) = assay: Catalepsy assay in mice; assay type: in vivo; settings: for catalepsy/MK-801 / catalepsy/apomorphine: ratio of ED50 values
Procedure: (§3) The durations for the mice to maintain the posture with the two forepaws on the bars were recorded, and 30 s of spasticity without moving was considered as the positive response. In the case the forepaws of the mice were not put down persistently, the observation was terminated at 60 s. The numbers of animals with positive response in each of the compound dosage groups were counted.

Catalepsy assay in mice = assay type: in vivo; settings: both sexes, Kunming (KM), mouse, in vivo; po, mice
Procedure: as §3

[2] = tested on: apomorphine induced clambering of mice; assay: Apomorphine induced clambering assay of mice; settings: for ED50: Mus musculus, po, read-out: apomorphine induced clambering ED50; for improvement of apomorphine induced clambering symptoms (in words): compared to the model group
Procedure: Apomorphine provided by Sigma Company was dissolved in 0.9% NaCl (containing 0.1% vitamin C) before use, and was freshly formulated before use.
Instruments: self-made clambering cage, chronograph.
After 5 min of adaptation, the behaviors of the mice at 10-11, 20-21, 30-31 min after the injection of apomorphine were observed.

[3] = tested on: MK-801 high activity mice; assay: MK-801 induced high activity in mice; assay type: in vivo; settings: for Total moving distance: MK-801 high activity mice, within 90 min; for ED50: Mus musculus, po, read-out: MK-801 induced high activity ED50; for improvement of MK-801 induced high activity (in words): compared to the model group
Procedure: Ascorbic acid was provided by Sinopharm Chemical Reagent Co. Ltd.
MK-801 was produced by Sigma Company, USA; the formulation method: 0.1% vitamin C was used to formulate a 1 mg/ml solution.
Tween 80, with the concentration of 10%.
Mice with qualified body weight were selected, and randomly divided into blank group, model group, positive control group (risperidone group) and drug group. […] 1 H after the administration, 0.1% of ascorbic acid was intraperitoneally injected to the blank group at 0.1 ml/10 g; and the model group, the positive control group (30 min) and the drug group were intraperitoneally injected the MK-801 solution at 0.1 mg/kg. Subsequently, the spontaneous activities of the mice of each group in 90 min were measured.

KM mice = assay: in vivo; settings: po, single intragastric administration in mice
Procedure: as §1, §2

[4] = single intragastric administration in mice, read-out: LD50

## Fc1ccc(-c2nnc(SCCCN3CCC(c4noc5cc(F)ccc45)CC3)o2)cc1 [Compound 10, 2-((3-(4-(3-(6-fluoro-benzisoxazole))-1-piperidyl)propylthio)-5-(4-fluoro)phenyl)-1,3,4-oxadiazole]
5HT1A receptor
  inhibition at 10 µM: 56.4%
5HT2A receptor
  inhibition at 10 µM: 117%
D2 receptor
  inhibition at 10 µM: 88.6%

## Clc1ccc(-c2nnc(SCCCN3CCN(c4nsc5ccccc45)CC3)o2)cc1 [Compound 5]
D3 receptor
  inhibition at 10 µM: 98.7%
5HT1A receptor
  pIC50: 7.57
5HT2A receptor
  pIC50: 7.20
5HT2C
  inhibition at 10 µM: 56.5%
D2 receptor
  inhibition at 10 µM: 92.7%

## c1ccc2c(-c3nnc(SCCCN4CCN(c5nsc6ccccc56)CC4)o3)cccc2c1 [Compound 11]
5HT1A receptor
  inhibition at 10 µM: 45.8%
[1]
  affinities to D2, D3, 5-HT1A and 5-HT2A receptors (in words): relatively stronger affinities
  affinity compared to aripiprazole (in words): equivalent to aripiprazole
5HT2A receptor
  inhibition at 10 µM: 91%
D2 receptor
  inhibition at 10 µM: 25.7%

## O=C1CCc2ccc(OCCCCN3CCN(c4cccc(Cl)c4Cl)CC3)cc2N1 [aripiprazole]
In vivo; KM
  LD50: 1400 mg/kg

## Fc1ccc2c(C3CCN(CCCSc4nnc(-c5ccc(Cl)cc5)o4)CC3)noc2c1 [Compound 6]
KM mice (catalepsy)
  EPS at effective dosage (in words): did not cause EPS
  catalepsy/MK-801: 28.02
  catalepsy/apomorphine: 22.62
Catalepsy assay in mice
  ED50: 92.7 mg/kg
D3 receptor
  inhibition at 10 µM: 101%
5HT1A receptor
  pIC50: 7.70
[2]
  ED50: 4.1 mg/kg
  improvement of apomorphine induced clambering symptoms (in words): effectively improve
5HT2A receptor
  pIC50: 7.82
5HT2C
  inhibition at 10 µM: 68.1%
D2 receptor
  inhibition at 10 µM: 104%
[3]; 3 mg/kg intragastric
  Total moving distance: 20912.66 ± 9887.01 cm
[3]; 5 mg/kg intragastric
  Total moving distance: 15745.74 ± 5475.41 cm
[3]; 10 mg/kg intragastric
  Total moving distance: 12997.51 ± 7859.06 cm
[3]; 20 mg/kg intragastric
  Total moving distance: 6741.35 ± 2251.52 cm
[3]; 30 mg/kg intragastric
  Total moving distance: 8454.72 ± 7864.50 cm
[3]; mice
  ED50: 3.31 mg/kg
[3]
  improvement of MK-801 induced high activity (in words): significantly improve
In vivo; [4]
  LD50: > 2000 mg/kg

## Fc1ccc2c(C3CCN(CCCSc4nnc(-c5ccc(C(F)(F)F)cc5)o4)CC3)noc2c1 [Compound 8, 2-((3-(4-(3-(6-fluoro-benzisoxazole))-1-piperidyl)propylthio)-5-(4-trifluoromethyl)phenyl)-1,3,4-oxadiazole]
5HT1A receptor
  inhibition at 10 µM: 20.8%
5HT2A receptor
  inhibition at 10 µM: 101%
D2 receptor
  inhibition at 10 µM: 105%

## c1ccc2c(N3CCN(CCCSc4nnc(-c5ccncc5)o4)CC3)nsc2c1 [Compound 15]
5HT1A receptor
  inhibition at 10 µM: 114%
5HT2A receptor
  inhibition at 10 µM: 95.1%
D2 receptor
  inhibition at 10 µM: 88.1%

## Fc1ccc(-c2nnc(SCCCN3CCN(c4nsc5ccccc45)CC3)o2)cc1 [Compound 9, 2-((3-(4-(3-benzisothiazole)-1-piperazinyl)propylthio)-5-(4-fluoro)phenyl)-1,3,4-oxadiazole]
5HT1A receptor
  inhibition at 10 µM: 107%
5HT2A receptor
  inhibition at 10 µM: 103%
D2 receptor
  inhibition at 10 µM: 84.8%

## Fc1ccc2c(C3CCN(CCCSc4nnc(-c5cccc6ccccc56)o4)CC3)noc2c1 [Compound 12]
KM mice (catalepsy)
  EPS at effective dosage (in words): did not cause EPS
  catalepsy/MK-801: 20.00
  catalepsy/apomorphine: 74.44
Catalepsy assay in mice
  ED50: 300 mg/kg
D3 receptor
  inhibition at 10 µM: 100%
5HT1A receptor
  pIC50: 6.76
[1]
  affinities to D2, D3, 5-HT1A and 5-HT2A receptors (in words): relatively stronger affinities
  affinity compared to aripiprazole (in words): equivalent to aripiprazole
[2]
  ED50: 4.03 mg/kg
  improvement of apomorphine induced clambering symptoms (in words): effectively improve
5HT2A receptor
  pIC50: 6.91
5HT2C
  inhibition at 10 µM: 60.6%
D2 receptor
  inhibition at 10 µM: 98.4%
[3]; 10 mg/kg intragastric
  Total moving distance: 20521.27 ± 7898.02 cm
[3]; 20 mg/kg intragastric
  Total moving distance: 12936.50 ± 3627.24 cm
[3]; 30 mg/kg intragastric
  Total moving distance: 16163.49 ± 7769.48 cm
[3]; 50 mg/kg intragastric
  Total moving distance: 10298.82 ± 4269.95 cm
[3]; 100 mg/kg intragastric
  Total moving distance: 5665.86 ± 1799.20 cm
[3]; mice
  ED50: 15 mg/kg
[3]
  improvement of MK-801 induced high activity (in words): significantly improve
In vivo; [4]
  LD50: > 2000 mg/kg

## FC(F)(F)c1ccc(-c2nnc(SCCCN3CCN(c4nsc5ccccc45)CC3)o2)cc1 [Compound 7, 2-((3-(4-(3-benzisothiazole)-1-piperazinyl)propylthio)-5-(4-trifluoromethyl)phenyl)-1,3,4-oxadiazole]
5HT1A receptor
  inhibition at 10 µM: 113%
5HT2A receptor
  inhibition at 10 µM: 98.8%
D2 receptor
  inhibition at 10 µM: 80.6%

## Fc1ccc2c(C3CCN(CCCSc4nnc(-c5ccncc5)o4)CC3)noc2c1 [Compound 16]
5HT1A receptor
  inhibition at 10 µM: 86.7%
5HT2A receptor
  inhibition at 10 µM: 107%
D2 receptor
  inhibition at 10 µM: 45.9%

## Fc1ccc2c(C3CCN(CCCSc4nnc(-c5ccccc5)o4)CC3)noc2c1 [Compound 2]
5HT1A receptor
  inhibition at 10 µM: 6.1%
5HT2A receptor
  inhibition at 10 µM: 11%
D2 receptor
  inhibition at 10 µM: 77.5%

## c1ccc(-c2nnc(SCCCN3CCN(c4nsc5ccccc45)CC3)o2)cc1 [Compound 1]
5HT1A receptor
  inhibition at 10 µM: 17.9%
5HT2A receptor
  inhibition at 10 µM: 87.1%
D2 receptor
  inhibition at 10 µM: 62.4%

## COc1ccc(-c2nnc(SCCCN3CCN(c4nsc5ccccc45)CC3)o2)cc1 [Compound 3]
D3 receptor
  inhibition at 10 µM: 99.5%
5HT1A receptor
  pIC50: 8.05
5HT2A receptor
  pIC50: 8.64
5HT2C
  inhibition at 10 µM: 98.5%
D2 receptor
  inhibition at 10 µM: 108%

## c1csc(-c2nnc(SCCCN3CCN(c4nsc5ccccc45)CC3)o2)c1 [Compound 13]
5HT1A receptor
  inhibition at 10 µM: 95.9%
5HT2A receptor
  inhibition at 10 µM: 101%
D2 receptor
  inhibition at 10 µM: 47.8%

## COc1ccc(-c2nnc(SCCCN3CCC(c4noc5cc(F)ccc45)CC3)o2)cc1 [Compound 4]
KM mice (catalepsy)
  EPS at effective dosage (in words): did not cause EPS
  catalepsy/MK-801: 41.56
  catalepsy/apomorphine: 395.30
Catalepsy assay in mice
  ED50: 640 mg/kg
D3 receptor
  inhibition at 10 µM: 101%
5HT1A receptor
  pIC50: 7.90
[2]
  ED50: 1.62 mg/kg
  improvement of apomorphine induced clambering symptoms (in words): effectively improve
5HT2A receptor
  pIC50: 9.29
5HT2C
  inhibition at 10 µM: 82.1%
D2 receptor
  inhibition at 10 µM: 113%
[3]; 3 mg/kg intragastric
  Total moving distance: 24988.83 ± 7617.21 cm
[3]; 5 mg/kg intragastric
  Total moving distance: 22872.82 ± 10538.51 cm
[3]; 10 mg/kg intragastric
  Total moving distance: 13574.51 ± 5340.38 cm
[3]; 30 mg/kg intragastric
  Total moving distance: 7773.56 ± 3681.67 cm
[3]; 100 mg/kg intragastric
  Total moving distance: 6954.61 ± 4931.26 cm
[3]; mice
  ED50: 15.4 mg/kg
[3]
  improvement of MK-801 induced high activity (in words): significantly improve
In vivo; [4]
  LD50: > 2000 mg/kg

## Cc1nc2n(c(=O)c1CCN1CCC(c3noc4cc(F)ccc34)CC1)CCCC2 [risperidone, reference compound]
[2]
  ED50: 0.02 mg/kg
  improvement of apomorphine induced clambering symptoms (in words): effectively improve
[3]
  ED50: 0.01 mg/kg
  improvement of MK-801 induced high activity (in words): significantly improve
In vivo; [4]
  LD50: 82.1 mg/kg
KM mice
  LD50: 82.1 mg/kg

## O=C1Cc2cc(CCN3CCN(c4nsc5ccccc45)CC3)c(Cl)cc2N1 [ziprasidone]
In vivo; [4]
  LD50: 2000 mg/kg
